Among the data in ChEMBL document CHEMBL1149829, “Terpenoids Produced by Actinomycetes: Napyradiomycins from Streptomyces antimycoticus NT17” (2008) are MIC values, retold here.

The structures appear in SMILES notation. ≈ marks a conversion by molar mass, not a printed value.

Common to all, as to type: functional
One test relates to Bacillus subtilis. Kind of test: Antibacterial activity against Bacillus subtilis ATCC 6633 in Mueller Hinton agar medium.
For another test, the system named is Enterococcus faecium. Kind of test: Antibacterial activity against Enterococcus faecium ATCC 19434 in Mueller Hinton agar medium.
A further test has as its system Staphylococcus aureus. Kind of test: Antibacterial activity against Staphylococcus aureus 209P JC1 in Mueller Hinton agar medium.
The test system of another test is Enterococcus faecalis. As to the kind of experiment: Antibacterial activity against Enterococcus faecalis ATCC 19433 in Mueller Hinton agar medium.
Another test deals with Streptococcus pyogenes. Kind of test: Antibacterial activity against Streptococcus pyogenes ATCC 12344 in Mueller Hinton agar medium.

Turning to `CC(C)=CCC/C(C)=C/C[C@@]12OC(C)(C)[C@H](Cl)C[C@]1(Cl)C(=O)C1=C(C2=O)C(=[N+]=[N-])C(=O)C=C1O`, the MIC came to 1 µM (≈ 0.507 µg/mL) in the test on Bacillus subtilis; 15.8 µM (≈ 8.02 µg/mL) in the test on Enterococcus faecium; 2 µM (≈ 1.01 µg/mL) in the test on Staphylococcus aureus; 31.6 µM (≈ 16 µg/mL) in the test on Enterococcus faecalis; 7.8 µM (≈ 3.96 µg/mL) against Streptococcus pyogenes.

For `C=C1CC[C@H](Cl)C(C)(C)[C@@H]1C[C@@]12OC(C)(C)[C@H](Cl)C[C@]1(Cl)C(=O)C1=C(C2=O)C(=[N+]=[N-])C(=O)C=C1O`, the minimum inhibitory concentration (MIC) in the test on Bacillus subtilis came out at 3.7 µM (≈ 2 µg/mL); with Enterococcus faecium it was 14.8 µM (≈ 8.02 µg/mL); against Staphylococcus aureus, 3.7 µM (≈ 2 µg/mL); in the test on Enterococcus faecalis, 14.8 µM (≈ 8.02 µg/mL).
